#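 Dose response: 5 concentrations. Exposure: 48 h. Format: 96-well plates. Endpoint: linear interpolation; highest concentration if not reached. GI50 marks 50% less growth. Definition used: TGI = concentration required for complete inhibition of growth.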
# Legend:
# Experiment in all cases: NCI anticancer screen, dose series, 48 h
# [1] = test system: NCI/ADR-RES ovarian
# [2] = test system: OVCAR-5 ovarian
# [3] = test system: COLO 205 colon
# [4] = test system: ACHN renal
# [5] = test system: SK-MEL-5 melanoma
# [6] = test system: HS 578T breast
# [7] = test system: RPMI-8226 leukemia
# [8] = test system: SF-268 CNS
# [9] = test system: TK-10 renal
# [10] = test system: CCRF-CEM leukemia
Compound,TGI [1],TGI [2],TGI [3],TGI [4],TGI [5],TGI [6],TGI [7],TGI [8],TGI [9],TGI [10],GI50 [1],GI50 [2],GI50 [3],GI50 [10],GI50 [4],GI50 [5],GI50 [6],GI50 [7],GI50 [8],GI50 [9]
CC(C)(C)NCc1cc(C(C)(C)C)cc(-c2ccc(Cl)cc2)c1O,32.4 µM,28.2 µM,23.8 µM,26.7 µM,29.7 µM,29 µM,40.5 µM,30.8 µM,26 µM,–,–,–,–,–,–,–,–,–,–,–
Nc1ccc(S(=O)(=O)C23CC4CC(CC(C4)C2)C3)cc1,> 100 µM,> 100 µM,> 100 µM,> 100 µM,> 100 µM,> 100 µM,> 100 µM,> 100 µM,> 100 µM,> 100 µM,–,–,–,–,–,–,–,–,–,–
C#CC1(O)C(COP(=O)(O)OC2CC(n3cc(F)c(=O)[nH]c3=O)OC2CO)OC(n2ccc(N)nc2=O)C1O (configuration not stated),–,> 33.5 µM,1.61 µM,–,0.196 µM,> 35.4 µM,–,13.5 µM,> 42.8 µM,–,< 0.012 µM,0.154 µM,< 0.01 µM,< 0.0129 µM,< 0.01 µM,< 0.0154 µM,0.304 µM,< 0.01 µM,< 0.01 µM,0.0273 µM
CC(C)c1ccc(C(=O)Nc2sc3c(c2C#N)CCC(=O)C3)cc1,11.2 µM,5.11 µM,2.87 µM,1.06 µM,2.52 µM,> 100 µM,–,> 75 µM,5.47 µM,> 100 µM,0.464 µM,0.552 µM,0.49 µM,0.189 µM,0.33 µM,0.979 µM,0.546 µM,0.152 µM,0.432 µM,0.613 µM
CN1c2ccccc2N(C)C2C1N(C)c1ccccc1N2C (configuration not stated),–,> 100 µM,29.4 µM,> 100 µM,18.4 µM,–,62.9 µM,46.6 µM,> 100 µM,9.73 µM,–,–,–,–,–,–,–,–,–,–
COC1OC(CO)C(O)C(O)C1Br (configuration not stated),–,> 100 µM,> 100 µM,> 100 µM,> 100 µM,–,> 100 µM,> 100 µM,> 100 µM,> 100 µM,–,–,–,–,–,–,–,–,–,–
CO/C1=C\C(C)=C\C(C)C(O)C(C)C/C(C)=C/C=C/C(OC)C(C(C)C(O)C(C)C2(O)CC(O)C(C)C(C(C)C)O2)OC1=O (configuration not stated),–,–,–,13.2 µM,0.00177 µM,–,–,19.5 µM,29.5 µM,–,–,–,–,–,–,–,–,–,–,–
CCOC(=O)c1[nH]c(-c2ccc(Cl)cc2)cc1-c1cccnc1,> 100 µM,> 100 µM,7.49 µM,> 100 µM,> 100 µM,–,–,> 100 µM,> 100 µM,> 100 µM,0.511 µM,1.17 µM,0.398 µM,0.391 µM,0.714 µM,0.401 µM,–,–,2.36 µM,0.972 µM
COc1cc2noc(-c3ccccc3)c2cc1OC,–,94 µM,> 100 µM,> 100 µM,> 100 µM,–,56.7 µM,> 100 µM,> 100 µM,> 100 µM,–,–,–,–,–,–,–,–,–,–
NC(=O)c1cc(Br)cc(C2CCCCC2)c1O,23.9 µM,27.8 µM,31.1 µM,25.5 µM,28.9 µM,–,–,25 µM,28.1 µM,39.8 µM,11 µM,13.9 µM,16.5 µM,15.1 µM,12.9 µM,15.1 µM,–,–,11.4 µM,13.4 µM
C(CCC[Te][Te]CCCCCCOC1CCCCO1)CCOC1CCCCO1 (configuration not stated),–,33.4 µM,36.5 µM,22.7 µM,–,–,–,41.2 µM,95.1 µM,41.4 µM,–,–,–,–,–,–,–,–,–,–
ClC(Cl)c1nc(-c2cccnc2)n2nc(-c3ccccc3)cc2n1,4.18 µM,5.43 µM,2.39 µM,4.94 µM,–,6.05 µM,–,5.76 µM,6.49 µM,> 100 µM,1.14 µM,1.9 µM,0.592 µM,2.32 µM,1.37 µM,–,2.5 µM,–,2.28 µM,1.84 µM
COc1cccc(C(=O)N2CCc3ccccc32)c1OC,–,> 100 µM,> 100 µM,> 100 µM,> 100 µM,–,> 100 µM,–,> 100 µM,> 100 µM,–,–,–,–,–,–,–,–,–,–
O=C(O)/C(=C/c1c(O)ccc2ccccc12)c1csc(-c2nc(/C(=C\c3c(O)ccc4ccccc34)C(=O)O)cs2)n1,–,31.9 µM,31.4 µM,18.8 µM,37.1 µM,–,43.8 µM,26.3 µM,58 µM,31.4 µM,–,–,–,–,–,–,–,–,–,–
NNc1nc2ccccc2c(=O)n1NC(=O)C(=O)Nc1cccc(C(F)(F)F)c1,> 100 µM,> 100 µM,–,> 100 µM,> 100 µM,> 100 µM,> 100 µM,> 100 µM,> 100 µM,> 100 µM,–,–,–,–,–,–,–,–,–,–
CC(=O)OC1CC2C(C)(C)C(=O)C=C[C@]2(C)C2CCC3(C)C(c4ccoc4)C(=O)[C@H]4O[C@]43[C@]12C (some centres not stated),–,42.5 µM,> 100 µM,45.1 µM,32.9 µM,–,47.3 µM,> 100 µM,> 100 µM,62.3 µM,–,–,–,–,–,–,–,–,–,–
C1CSCCCSCCSCCCSC1,–,> 100 µM,> 100 µM,> 100 µM,> 100 µM,> 100 µM,> 100 µM,> 100 µM,> 100 µM,–,–,–,–,–,–,–,–,–,–,–
NC(=O)N/N=C/C(/C=N/NC(N)=O)[N+](=O)[O-],–,> 100 µM,> 100 µM,> 100 µM,–,–,> 100 µM,> 100 µM,> 100 µM,> 100 µM,–,–,–,–,–,–,–,–,–,–
COCC(=O)CP(=O)(OC)OC,–,> 100 µM,> 100 µM,> 100 µM,> 100 µM,–,> 100 µM,> 100 µM,> 100 µM,> 100 µM,–,–,–,–,–,–,–,–,–,–
CC1(C)OC(=O)C=C([O-])O1.CC1(C)OC(=O)C=C([O-])O1.O=S(=O)([O-])c1ccc([O-])c2ncccc12.O=S(=O)([O-])c1ccc([O-])c2ncccc12.[Ti+4],–,63.1 µM,> 100 µM,> 100 µM,> 100 µM,–,> 100 µM,> 100 µM,> 100 µM,> 100 µM,–,25.9 µM,> 100 µM,69.8 µM,50.3 µM,92 µM,–,> 100 µM,52 µM,> 100 µM

# Source: PubChem BioAssay (NCI)
